Source: ChEMBL document CHEMBL1201862, “PubChem BioAssay data set” (2004)
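How tested: cells in 96-well plates exposed to compound for 48 hours at five concentrations. GI50 = concentration required for 50% inhibition of growth.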 The source made the active and inactive calls. No stated cut-off is given here; in the data, active = GI50 up to about 1.1 µM and inactive = higher.

Experiments:
Assay in all cases: growth of human tumour cells (NCI), 48 h
[1] = test system: M14
[2] = test system: MCF7
[3] = test system: HOP-92
[4] = test system: SK-OV-3
[5] = test system: HCC 2998
[6] = test system: MDA-MB-231
[7] = test system: SK-MEL-2
[8] = test system: SW-620
[9] = test system: T47D
[10] = test system: OVCAR-4
[11] = test system: NCI/ADR-RES
[12] = test system: 786-0
[13] = test system: UO-31
[14] = test system: U-251
[15] = test system: MDA-MB-435
[16] = test system: HT-29
[17] = test system: MDA-N
[18] = test system: LOX IMVI
[19] = test system: HL-60
[20] = test system: IGROV-1
[21] = test system: UACC-257
[22] = test system: SK-MEL-5
[23] = test system: HCT-116
[24] = test system: COLO 205
[25] = test system: NCI-H460
[26] = test system: UACC-62
[27] = test system: SF-539
[28] = test system: OVCAR-8
[29] = test system: BT-549
[30] = test system: A549
[31] = test system: Hs-578T
[32] = test system: Malme-3M
[33] = test system: CAKI-1
[34] = test system: RXF 393
[35] = test system: CCRF-CEM
[36] = test system: A498
[37] = test system: EKVX
[38] = test system: OVCAR-5
[39] = test system: PC-3
[40] = test system: MOLT-4
[41] = test system: SN12C
[42] = test system: DU-145
[43] = test system: SNB-19
[44] = test system: HOP-62
[45] = test system: SNB-75
[46] = test system: KM12
[47] = test system: SR
[48] = test system: RPMI-8226
[49] = test system: SK-MEL-28
[50] = test system: OVCAR-3
[51] = test system: ACHN
[52] = test system: HCT-15
[53] = test system: TK-10
[54] = test system: SF-268
[55] = test system: NCI-H522
[56] = test system: NCI-H23
[57] = test system: K562
[58] = test system: SF-295
[59] = test system: NCI-H226

COc1ccc(C(=O)NC2=C(Cl)C(=O)c3ccccc3C2=O)cc1
GI50 [1]: 1.05 µM (active)
GI50 [2]: 2.75 µM (inactive)
GI50 [3]: 1.36 µM (inactive)
GI50 [4]: 2.23 µM (inactive)
GI50 [5]: 4.49 µM (inactive)
GI50 [6]: 2.36 µM (inactive)
GI50 [7]: 1.02 µM (active)
GI50 [8]: 1.1 µM (active)
GI50 [9]: 0.929 µM (active)
GI50 [10]: 2.17 µM (inactive)
GI50 [11]: 2.07 µM (inactive)
GI50 [12]: 5.36 µM (inactive)
GI50 [13]: 1.9 µM (inactive)
GI50 [14]: 0.977 µM (active)
GI50 [15]: 2.22 µM (inactive)
GI50 [16]: 4.41 µM (inactive)
GI50 [17]: 2.75 µM (inactive)
GI50 [18]: 2.3 µM (inactive)
GI50 [19]: 0.336 µM (active)
GI50 [20]: 2.52 µM (inactive)
GI50 [21]: 1.71 µM (inactive)
GI50 [22]: 1.58 µM (inactive)
GI50 [23]: 0.406 µM (active)
GI50 [24]: 1.89 µM (inactive)
GI50 [25]: 3.1 µM (inactive)
GI50 [26]: 0.471 µM (active)
GI50 [27]: 1.66 µM (inactive)
GI50 [28]: 3.32 µM (inactive)
GI50 [29]: 2.02 µM (inactive)
GI50 [30]: 4.08 µM (inactive)
GI50 [31]: 3.08 µM (inactive)
GI50 [32]: 1.48 µM (inactive)
GI50 [33]: 2.3 µM (inactive)
GI50 [34]: 0.995 µM (active)
GI50 [35]: 3.23 µM (inactive)
GI50 [36]: 14.6 µM (inactive)
GI50 [37]: 5.3 µM (inactive)
GI50 [38]: 2.7 µM (inactive)
GI50 [39]: 1.65 µM (inactive)
GI50 [40]: 0.955 µM (active)
GI50 [41]: 2.77 µM (inactive)
GI50 [42]: 3.86 µM (inactive)
GI50 [43]: 5.16 µM (inactive)
GI50 [44]: 18 µM (inactive)
GI50 [45]: 2.56 µM (inactive)
GI50 [46]: 1.07 µM (active)
GI50 [47]: 1.61 µM (inactive)
GI50 [48]: 0.579 µM (active)
GI50 [49]: 1.15 µM (inactive)
GI50 [50]: 1.14 µM (inactive)
GI50 [51]: 0.472 µM (active)
GI50 [52]: 0.482 µM
GI50 [53]: 3.22 µM (inactive)
GI50 [54]: 4.69 µM (inactive)
GI50 [55]: 0.416 µM (active)
GI50 [56]: 1.6 µM (inactive)
GI50 [57]: 1.36 µM (inactive)
GI50 [58]: 3.85 µM (inactive)
GI50 [59]: 1.82 µM (inactive)

Nc1n[c-](N)[n+](=O)c(N)c1NCO
GI50 [1]: > 100 µM (inactive)
GI50 [2]: > 100 µM (inactive)
GI50 [3]: > 100 µM (inactive)
GI50 [4]: > 100 µM (inactive)
GI50 [5]: > 100 µM (inactive)
GI50 [6]: > 100 µM (inactive)
GI50 [7]: > 100 µM (inactive)
GI50 [8]: > 100 µM (inactive)
GI50 [9]: > 100 µM (inactive)
GI50 [10]: > 100 µM (inactive)
GI50 [11]: > 100 µM (inactive)
GI50 [12]: > 100 µM (inactive)
GI50 [13]: > 100 µM (inactive)
GI50 [14]: > 100 µM (inactive)
GI50 [15]: > 100 µM (inactive)
GI50 [16]: > 100 µM (inactive)
GI50 [17]: > 100 µM (inactive)
GI50 [18]: > 100 µM (inactive)
GI50 [19]: > 100 µM (inactive)
GI50 [20]: > 100 µM (inactive)
GI50 [21]: > 100 µM (inactive)
GI50 [22]: > 100 µM (inactive)
GI50 [23]: > 100 µM (inactive)
GI50 [24]: > 100 µM (inactive)
GI50 [25]: > 100 µM (inactive)
GI50 [26]: > 100 µM (inactive)
GI50 [27]: > 100 µM (inactive)
GI50 [28]: > 100 µM (inactive)
GI50 [29]: > 100 µM (inactive)
GI50 [30]: > 100 µM (inactive)
GI50 [31]: > 100 µM (inactive)
GI50 [32]: > 100 µM (inactive)
GI50 [33]: > 100 µM (inactive)
GI50 [34]: > 100 µM (inactive)
GI50 [35]: > 100 µM (inactive)
GI50 [36]: > 100 µM (inactive)
GI50 [37]: > 100 µM (inactive)
GI50 [38]: > 100 µM (inactive)
GI50 [39]: > 100 µM (inactive)
GI50 [40]: > 100 µM (inactive)
GI50 [41]: > 100 µM (inactive)
GI50 [42]: > 100 µM (inactive)
GI50 [43]: > 100 µM (inactive)
GI50 [44]: > 100 µM (inactive)
GI50 [45]: > 100 µM (inactive)
GI50 [46]: > 100 µM (inactive)
GI50 [47]: > 100 µM (inactive)
GI50 [48]: > 100 µM (inactive)
GI50 [49]: > 100 µM (inactive)
GI50 [50]: > 100 µM (inactive)
GI50 [51]: > 100 µM (inactive)
GI50 [52]: > 100 µM
GI50 [53]: > 100 µM (inactive)
GI50 [54]: > 100 µM (inactive)
GI50 [55]: > 100 µM (inactive)
GI50 [56]: > 100 µM (inactive)
GI50 [57]: > 100 µM (inactive)
GI50 [58]: > 100 µM (inactive)
GI50 [59]: > 100 µM (inactive)

CNC(=O)N(CCC#N)CCN(C(=O)N(C)C)c1ccccc1
GI50 [1]: > 100 µM (inactive)
GI50 [2]: > 100 µM (inactive)
GI50 [3]: > 100 µM (inactive)
GI50 [4]: > 100 µM (inactive)
GI50 [5]: > 100 µM (inactive)
GI50 [6]: > 100 µM (inactive)
GI50 [7]: > 100 µM (inactive)
GI50 [8]: > 100 µM (inactive)
GI50 [9]: > 100 µM (inactive)
GI50 [10]: > 100 µM (inactive)
GI50 [11]: > 100 µM (inactive)
GI50 [12]: > 100 µM (inactive)
GI50 [13]: > 100 µM (inactive)
GI50 [14]: > 100 µM (inactive)
GI50 [15]: > 100 µM (inactive)
GI50 [16]: > 100 µM (inactive)
GI50 [17]: > 100 µM (inactive)
GI50 [18]: > 100 µM (inactive)
GI50 [19]: > 100 µM (inactive)
GI50 [20]: > 100 µM (inactive)
GI50 [21]: > 100 µM (inactive)
GI50 [22]: > 100 µM (inactive)
GI50 [23]: > 100 µM (inactive)
GI50 [24]: > 100 µM (inactive)
GI50 [25]: > 100 µM (inactive)
GI50 [26]: > 100 µM (inactive)
GI50 [27]: > 100 µM (inactive)
GI50 [28]: > 100 µM (inactive)
GI50 [29]: > 100 µM (inactive)
GI50 [30]: > 100 µM (inactive)
GI50 [31]: > 100 µM (inactive)
GI50 [32]: > 100 µM (inactive)
GI50 [33]: > 100 µM (inactive)
GI50 [34]: > 100 µM (inactive)
GI50 [35]: > 100 µM (inactive)
GI50 [36]: > 100 µM (inactive)
GI50 [37]: > 100 µM (inactive)
GI50 [38]: > 100 µM (inactive)
GI50 [39]: > 100 µM (inactive)
GI50 [40]: > 100 µM (inactive)
GI50 [41]: > 100 µM (inactive)
GI50 [42]: > 100 µM (inactive)
GI50 [43]: > 100 µM (inactive)
GI50 [44]: > 100 µM (inactive)
GI50 [45]: > 100 µM (inactive)
GI50 [46]: > 100 µM (inactive)
GI50 [47]: > 100 µM (inactive)
GI50 [48]: > 100 µM (inactive)
GI50 [49]: > 100 µM (inactive)
GI50 [50]: > 100 µM (inactive)
GI50 [51]: > 100 µM (inactive)
GI50 [52]: > 100 µM
GI50 [53]: > 100 µM (inactive)
GI50 [54]: > 100 µM (inactive)
GI50 [55]: > 100 µM (inactive)
GI50 [56]: > 100 µM (inactive)
GI50 [57]: > 100 µM (inactive)
GI50 [58]: > 100 µM (inactive)
GI50 [59]: > 100 µM (inactive)

N#CC12CC3=C(N=C1NC1=C(CCc4ccccc41)C2)c1ccccc1CC3 (stereo unspecified)
GI50 [1]: 2.76 µM (inactive)
GI50 [2]: 0.594 µM (active)
GI50 [3]: 2.72 µM (inactive)
GI50 [4]: 2.67 µM (inactive)
GI50 [5]: 1.74 µM (inactive)
GI50 [6]: 4.16 µM (inactive)
GI50 [7]: 4.39 µM (inactive)
GI50 [8]: 0.871 µM (active)
GI50 [9]: 6.67 µM (inactive)
GI50 [10]: 7.55 µM (inactive)
GI50 [11]: 2.97 µM (inactive)
GI50 [12]: 3.42 µM (inactive)
GI50 [13]: 3.45 µM (inactive)
GI50 [14]: 1.58 µM (inactive)
GI50 [15]: 0.278 µM (active)
GI50 [16]: 0.533 µM (active)
GI50 [17]: 0.258 µM (active)
GI50 [18]: 1.42 µM (inactive)
GI50 [19]: 0.323 µM (active)
GI50 [20]: 1.44 µM (inactive)
GI50 [21]: 17.6 µM (inactive)
GI50 [22]: 3.74 µM (inactive)
GI50 [23]: 1.95 µM (inactive)
GI50 [24]: 1.73 µM (inactive)
GI50 [25]: 3.06 µM (inactive)
GI50 [26]: 2.82 µM (inactive)
GI50 [27]: 2.53 µM (inactive)
GI50 [28]: 3.24 µM (inactive)
GI50 [29]: 9.29 µM (inactive)
GI50 [30]: 3.32 µM (inactive)
GI50 [31]: 4.83 µM (inactive)
GI50 [32]: 1.71 µM (inactive)
GI50 [33]: 3.8 µM (inactive)
GI50 [34]: 3.4 µM (inactive)
GI50 [35]: 0.745 µM (active)
GI50 [36]: 1.8 µM (inactive)
GI50 [37]: 4.67 µM (inactive)
GI50 [38]: 4.22 µM (inactive)
GI50 [39]: 2.12 µM (inactive)
GI50 [40]: 1.72 µM (inactive)
GI50 [41]: 5.15 µM (inactive)
GI50 [42]: 3.97 µM (inactive)
GI50 [43]: 3.95 µM (inactive)
GI50 [44]: 5.37 µM (inactive)
GI50 [45]: 1.64 µM (inactive)
GI50 [46]: 0.938 µM (active)
GI50 [47]: 0.255 µM (active)
GI50 [48]: 0.993 µM (active)
GI50 [49]: 4.06 µM (inactive)
GI50 [50]: 0.538 µM (active)
GI50 [51]: 6.59 µM (inactive)
GI50 [52]: 1.76 µM
GI50 [53]: 4.61 µM (inactive)
GI50 [54]: 3.3 µM (inactive)
GI50 [55]: 1.23 µM (inactive)
GI50 [56]: 3.18 µM (inactive)
GI50 [57]: 0.317 µM (active)
GI50 [58]: 0.984 µM (active)
GI50 [59]: 3.73 µM (inactive)
